Source: article PMC12670405, “Second-Generation AURKA-Targeting PROTACs: Structural Optimization toward in Vivo Degradation in Neuroblastoma” (Journal of Medicinal Chemistry, 2025)

Biological target: T1, AURKA (Homo sapiens, UniProt O14965)
T1 sequence (O14965 1-403): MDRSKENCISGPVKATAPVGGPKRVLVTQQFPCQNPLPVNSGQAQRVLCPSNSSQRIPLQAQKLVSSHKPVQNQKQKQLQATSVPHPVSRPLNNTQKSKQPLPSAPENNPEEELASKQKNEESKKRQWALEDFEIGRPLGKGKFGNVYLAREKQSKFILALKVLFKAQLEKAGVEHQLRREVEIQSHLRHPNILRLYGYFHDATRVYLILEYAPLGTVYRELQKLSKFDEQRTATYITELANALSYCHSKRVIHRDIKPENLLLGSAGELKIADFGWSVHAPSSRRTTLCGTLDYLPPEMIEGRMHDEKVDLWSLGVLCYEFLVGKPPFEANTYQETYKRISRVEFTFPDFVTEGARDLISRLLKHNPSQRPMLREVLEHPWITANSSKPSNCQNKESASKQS
Experiment: KINOMEscan scanMAX
Assay type: binding
Parameters: purchased Eurofins Discovery
Details: read-out: Percent Control
Description: The kinome-wide binding assay was performed by Eurofins Discovery using the scanMAX screening platform. More information can be found on the Eurofins Discovery Web site.

Compound `Cc1cc(Nc2ccc(F)c(CC3(C(=O)N4CCC(F)(CN5CCN(c6ccc(N7CCC(=O)NC7=O)cn6)CC5)CC4)CCN(Cc4cccc(Cl)c4F)CC3)n2)n[nH]1` [SK5527] has a remaining binding at 0.1 µM (100 nM) of 0.8% and a remaining binding at 1 µM (1000 nM) of 0%.
